# Test results taken from ChEMBL document CHEMBL5608252, “New Potent Sulfonamide-Based Inhibitors of S. aureus Biotin Protein Ligase” (ACS Med Chem Lett, 2024).
# How the values were obtained:
# Staphylococcus aureus [1] = test: Antibacterial activity against methicillin-resistant Staphylococcus aureus USA300 incubated for 16 to 20 hrs by CLSI based broth microdilution method; format: functional; conditions: time 16-20 hrs
# Staphylococcus aureus [2] = test: Antibacterial activity against methicillin-resistant Staphylococcus aureus […] incubated for 16 to 20 hrs by CLSI based broth microdilution method; format: functional; conditions: time 16-20 hrs
# Staphylococcus aureus [3] = test: Antibacterial activity against methicillin-susceptible Staphylococcus aureus ATCC 49775 incubated for 16 to 20 hrs by CLSI based broth microdilution method; format: functional; conditions: time 16-20 hrs
# [4] = Inhibition of Staphylococcus aureus BPL assessed as inhibition constant by biotinylation assay
# Staphylococcus aureus [5] = test: Antibacterial activity against methicillin-susceptible Staphylococcus aureus ATCC 29213 incubated for 16 to 20 hrs by CLSI based broth microdilution method; format: functional; conditions: time 16-20 hrs
SMILES,MIC (Staphylococcus aureus [1]),MIC (Staphylococcus aureus [2]),MIC (Staphylococcus aureus [3]),Ki [4],MIC (Staphylococcus aureus [5])
Nc1ncnc2c1ncn2CCCCS(=O)(=O)NC(=O)OCCCCC[C@@H]1SC[C@@H]2NC(=O)N[C@@H]21,> 256 µg/mL,> 256 µg/mL,> 256 µg/mL,10.3 nM,> 256 µg/mL
Nc1ncnc2c1ncn2CCCCCS(=O)(=O)NC(=O)NCCCC[C@@H]1SC[C@@H]2NC(=O)N[C@@H]21,16 µg/mL,16 µg/mL,16 µg/mL,57.2 nM,16 µg/mL
Nc1ncnc2c1ncn2CCCCNS(=O)(=O)NC(=O)CCCC[C@@H]1SC[C@@H]2NC(=O)N[C@@H]21,,,,7 nM,
Nc1ncnc2c1ncn2CCCNS(=O)(=O)NC(=O)OCCCCC[C@@H]1SC[C@@H]2NC(=O)N[C@@H]21,32 µg/mL,16 µg/mL,32 µg/mL,20.1 nM,32 µg/mL
Nc1ncnc2c1ncn2CCCCOS(=O)(=O)NC(=O)NCCCC[C@@H]1SC[C@@H]2NC(=O)N[C@@H]21,32 µg/mL,16 µg/mL,32 µg/mL,35.3 nM,32 µg/mL
Nc1ncnc2c1ncn2CCCCNS(=O)(=O)NC(=O)NCCCC[C@@H]1SC[C@@H]2NC(=O)N[C@@H]21,,,,65 nM,
